Test [1] deals with T1, Human COX II (Homo sapiens, UniProt P35354).
T1 construct: made in house; host or cells: SF9 insect cells, recombinant baculovirus (transfer vector pVL1393)
T1 sequence (P35354 18-604): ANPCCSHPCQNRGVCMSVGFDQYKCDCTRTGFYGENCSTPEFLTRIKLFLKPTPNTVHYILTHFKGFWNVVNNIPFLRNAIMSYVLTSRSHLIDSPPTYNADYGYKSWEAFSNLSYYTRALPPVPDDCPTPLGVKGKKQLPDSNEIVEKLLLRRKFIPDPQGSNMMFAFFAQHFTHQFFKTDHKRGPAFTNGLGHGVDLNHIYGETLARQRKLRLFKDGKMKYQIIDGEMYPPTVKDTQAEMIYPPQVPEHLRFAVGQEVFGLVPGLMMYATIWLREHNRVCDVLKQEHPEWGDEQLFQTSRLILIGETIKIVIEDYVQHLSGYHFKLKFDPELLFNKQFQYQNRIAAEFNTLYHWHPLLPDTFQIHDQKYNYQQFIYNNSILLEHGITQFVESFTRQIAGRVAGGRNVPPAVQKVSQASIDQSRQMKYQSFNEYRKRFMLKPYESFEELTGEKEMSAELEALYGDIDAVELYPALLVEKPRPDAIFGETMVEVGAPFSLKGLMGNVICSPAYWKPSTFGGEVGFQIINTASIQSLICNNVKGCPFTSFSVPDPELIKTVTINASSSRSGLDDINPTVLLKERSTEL
As to the kind of experiment: Evaluation of COX II activity in vitro (recombinant enzyme, PGE2 ELISA). It counts as biochemical. The settings on record: 10 μM arachidonic acid, pre-incubation 10-20 minutes, pH 8.0; read-out: Human COX II ID50. As for the experimental part:
(§1) Evaluation of COX I and COX II activity in vitro
The COX II inhibition activity of the compounds of this invention illustrated in the Examples was determined by the following methods.
(§2) a. Preparation of recombinant COX baculoviruses
(§3) A 2.0 kb fragment containing the coding region of either human or murine COX-I or human or murine COX-II was cloned into a BamH1 site of the baculovirus transfer vector pVL1393 (Invitrogen) to generate the baculovirus transfer vectors for COX-I and COX-II in a manner similar to the method of D. R. O'Reilly et al (Baculovirus Expression Vectors: A Laboratory Manual (1992)). Recombinant baculoviruses were isolated by transfecting 4 μg of baculovirus transfer vector DNA into SF9 insect cells ([…]) along with 200 ng of linearized baculovirus plasmid DNA by the calcium phosphate method. See M. D. Summers and G. E. Smith, A Manual of Methods for Baculovirus Vectors and Insect Cell Culture Procedures, Texas Agric. Exp. Station Bull. 1555 (1987). Recombinant viruses were purified by three rounds of plaque purification and high titer (10E7-10E8 pfu/ml) stocks of virus were prepared. For large scale production, SF9 insect cells were infected in 10 liter fermentors (0.5×10^6 /ml) with the recombinant baculovirus stock such that the multiplicity of infection was 0.1. After 72 hours the cells were centrifuged and the cell pellet homogenized in Tris/Sucrose (50 mM: 25%, pH 8.0) containing 1% 3-[(3-cholamidopropyl)dimethylammonio]-1-propanesulfonate (CHAPS). The homogenate was centrifuged at 10,000'G for 30 minutes, and the resultant supernatant was stored at -80° C. before being assayed for COX activity.
(§4) b. Assay for COX I and COX II activity:
(§5) COX activity was assayed as PGE2 formed/μg protein/time using an ELISA to detect the prostaglandin released. CHAPS-solubilized insect cell membranes containing the appropriate COX enzyme were incubated in a potassium phosphate buffer (50 mM, pH 8.0) containing epinephrine, phenol, and heme with the addition of arachidonic acid (10 μM). Compounds were pre-incubated with the enzyme for 10-20 minutes prior to the addition of arachidonic acid. Any reaction between the arachidonic acid and the enzyme was stopped after ten minutes at 37° C./room temperature by transferring 40 μl of reaction mix into 160 μl ELISA buffer and 25 μM indomethacin. The PGE2 formed was measured by standard ELISA technology (Cayman Chemical).
A general note: In an ELISA, binding on a coated surface is turned into a signal by an enzyme label.

Test [2] concerns the target T2, Human COX I (Homo sapiens, UniProt P23219).
T2 construct: made in house; host or cells: SF9 insect cells, recombinant baculovirus (transfer vector pVL1393)
As to the kind of experiment: Evaluation of COX I activity in vitro (recombinant enzyme, PGE2 ELISA). It counts as biochemical. Conditions: 10 μM arachidonic acid, pre-incubation 10-20 minutes, pH 8.0; read-out: Human COX I ID50.
Source text: as §1, §2, §3, §4, §5

Structures are written as SMILES.

T2 sequence (P23219 24-599): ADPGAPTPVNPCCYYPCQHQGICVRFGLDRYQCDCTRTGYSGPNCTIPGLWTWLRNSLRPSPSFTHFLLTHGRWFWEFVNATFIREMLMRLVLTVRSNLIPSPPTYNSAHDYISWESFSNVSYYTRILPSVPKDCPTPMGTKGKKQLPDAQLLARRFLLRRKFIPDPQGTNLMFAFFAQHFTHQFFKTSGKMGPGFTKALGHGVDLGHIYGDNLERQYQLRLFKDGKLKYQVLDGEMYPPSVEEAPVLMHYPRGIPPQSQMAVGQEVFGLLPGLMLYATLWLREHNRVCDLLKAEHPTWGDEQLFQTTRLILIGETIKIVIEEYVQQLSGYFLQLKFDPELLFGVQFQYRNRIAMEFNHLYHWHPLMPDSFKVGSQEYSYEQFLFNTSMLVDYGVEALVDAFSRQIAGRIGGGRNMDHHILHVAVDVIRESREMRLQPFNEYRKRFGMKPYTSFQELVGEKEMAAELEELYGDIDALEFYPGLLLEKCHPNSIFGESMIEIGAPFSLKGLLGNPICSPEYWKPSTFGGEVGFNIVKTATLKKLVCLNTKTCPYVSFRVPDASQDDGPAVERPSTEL

Turning to `COc1ccc2c(c1F)CSc1c(C(F)(F)F)nn(-c3ccc(S(N)(=O)=O)cc3)c1-2` [Example 1, 4-[1,5-Dihydro-6-fluoro-7-methoxy-3-(trifluoromethyl)-[2]benzothiopyrano[4,3-c]pyrazol-1-yl]benzenesulfonamide], the IC50 is < 0.1 µM in test [1] and 2.7 µM in test [2].

In the case of `NS(=O)(=O)c1ccc(-n2nc(C(F)(F)F)c3c2-c2ccccc2OC3)cc1` [Example 3, 4-[1,4-Dihydro-3-(trifluoromethyl)-[1]benzopyrano[4,3-c]pyrazol-1-yl]benzenesulfonamide], the IC50 in test [1] turned out to be 1.3 µM.

Take `COC(=O)c1nn(-c2ccc(S(N)(=O)=O)cc2)c2c1COc1ccccc1-2` [Example 4, Methyl[1-[4-(aminosulfonyl)phenyl]-1,4-dihydro-[1]benzopyrano[4,3-c]pyrazol-3-yl]carboxylate]: in test [1], the IC50 amounted to 0.5 µM.

For the molecule `NS(=O)(=O)c1ccc(-n2nc(C(F)(F)F)c3c2-c2cc(F)ccc2OC3)cc1` [Example 5, 4-[1,4-Dihydro-8-fluoro-3-(trifluoromethyl)-[1]benzopyrano[4,3-c]pyrazol-1-yl]benzenesulfonamide], the results for the IC50 in test [1] and in test [2] were 4.8 µM and 24.4 µM, respectively.

With `NS(=O)(=O)c1ccc(-n2nc(C(F)(F)F)c3oc4ccccc4c32)cc1` [Example 6, 4-[3-(Trifluoromethyl)-1H-benzofuro[3,2-c]pyrazol-1-yl]benzenesulfonamide], the IC50 in test [1] came to 23.5 µM; in test [2] it was 11.1 µM.

`COC(=O)c1nn(-c2ccc(S(N)(=O)=O)cc2)c2c1CSc1ccccc1-2` [Example 8, Methyl[1-[(4-aminosulfonyl)phenyl]-1,4-dihydro-[1]benzothiopyrano[4,3-c]pyrazol-3-yl]carboxylate]: the IC50 in test [1] amounted to 0.5 µM.

Take `NS(=O)(=O)c1ccc(-n2nc(C(F)(F)F)c3c2-c2ccc(Cl)c(Cl)c2SC3)cc1` [Example 9, 4-[6,7-Dichloro-1,4-dihydro-3-(trifluoromethyl)-[1]benzothiopyrano[4,3-c]pyrazol-1-yl]benzenesulfonamide]: the IC50 was 48.2 µM in test [1] and > 100 µM in test [2].

Take `NS(=O)(=O)c1ccc(-n2nc(C(F)(F)F)c3c2-c2ccc(F)cc2SC3)cc1` [Example 10, 4-[1,4-Dihydro-7-fluoro-3-(trifluoromethyl)-[1]benzothiopyrano[4,3-c]pyrazol-1-yl]benzenesulfonamide]: the IC50 in test [1] was < 0.1 µM; in test [2], 6.2 µM.

For `CC(C)c1cccc2c1SCc1c(C(F)(F)F)nn(-c3ccc(S(N)(=O)=O)cc3)c1-2` [Example 11, 4-[1,4-Dihydro-6-isopropyl-3-(trifluoromethyl)-[1]benzothiopyrano[4,3-c]pyrazol-1-yl]benzenesulfonamide], the results for the IC50 in test [1] and in test [2] were 52 µM and > 100 µM, respectively.

With `COc1cc2c(cc1OC)-c1c(c(C(F)(F)F)nn1-c1ccc(S(N)(=O)=O)cc1)CS2` [Example 12, 4-[1,4-Dihydro-7,8-dimethoxy-3-(trifluoromethyl)-[1]benzothiopyrano[4,3-c]pyrazol-1-yl]benzenesulfonamide], the values for the IC50 in test [1] and in test [2] were 95 µM and > 100 µM, respectively.

Regarding `COc1ccc2c(c1)SCc1c(C(F)(F)F)nn(-c3ccc(S(N)(=O)=O)cc3)c1-2` [Example 13, 4-[1,4-Dihydro-7-methoxy-3-(trifluoromethyl)-[1]benzothiopyrano[4,3-c]pyrazol-1-yl]benzenesulfonamide], the IC50 in test [1] and in test [2] was < 0.1 µM in each case.

For the molecule `Cc1ccc2c(c1)SCc1c(C(F)(F)F)nn(-c3ccc(S(N)(=O)=O)cc3)c1-2` [Example 14, 4-[1,4-Dihydro-7-methyl-3-(trifluoromethyl)-[1]benzothiopyrano[4,3-c]pyrazol-1-yl]benzenesulfonamide], the IC50 in test [1] was 0.2 µM; in test [2], 4.6 µM.

Consider `NS(=O)(=O)c1ccc(-n2nc(C(F)(F)F)c3c2-c2ccc(Cl)cc2SC3)cc1` [Example 15, 4-[7-Chloro-1,4-dihydro-3-(trifluoromethyl)-[1]benzothiopyrano[4,3-c]pyrazol-1-yl]benzenesulfonamide], for which the results for the IC50 in test [1] and in test [2] were < 0.1 µM and 0.3 µM, respectively.

On to `NS(=O)(=O)c1ccc(-n2nc(C(F)(F)F)c3c2-c2ccccc2CS3)cc1` [Example 16, 4-[1,5-Dihydro-3-(trifluoromethyl)-[2]benzothiopyrano[4,3-c]pyrazol-1-yl]benzenesulfonamide], for which the IC50 in test [1] is < 0.1 µM.

For `Cc1ccc2c(c1)CSc1c(C(F)(F)F)nn(-c3ccc(S(N)(=O)=O)cc3)c1-2` [Example 17, 4-[1,5-Dihydro-7-methyl-3-(trifluoromethyl)-[2]benzothiopyrano[4,3-c]pyrazol-1-yl]benzenesulfonamide], the IC50 in test [1] is < 0.1 µM; in test [2], 0.8 µM.

Regarding `Cc1ccc2c(c1)CSc1c(C(F)(F)F)nn(-c3ccc(S(C)(=O)=O)cc3)c1-2` [Example 18, 1,5-Dihydro-1-[4-(methylsulfonyl)phenyl]-7-methyl-3-(trifluoromethyl)-[2]benzothiopyrano[4,3-c]pyrazole], the results for the IC50 in test [1] and in test [2] were < 0.1 µM and 3.7 µM, respectively.

As to `NS(=O)(=O)c1ccc(-n2nc(C(F)(F)F)c3c2-c2ccc(Cl)cc2CS3)cc1` [Example 19, 4-[7-Chloro-1,5-dihydro-3-(trifluoromethyl)-[2]benzothiopyrano[4,3-c]pyrazol-1-yl]benzenesulfonamide], the values for the IC50 in test [1] and in test [2] were < 0.1 µM and 0.3 µM, respectively.

For the molecule `COc1ccc2c(c1)CSc1c(C(F)(F)F)nn(-c3ccc(S(N)(=O)=O)cc3)c1-2` [Example 20, 4-[1,5-Dihydro-7-methoxy-3-(trifluoromethyl)-[2]benzothiopyrano[4,3-c]pyrazol-1-yl]benzenesulfonamide], the IC50 in test [1] and in test [2] was < 0.1 µM each time.

For `N#Cc1nn(-c2ccc(S(N)(=O)=O)cc2)c2c1CSc1ccccc1-2` [Example 22, 1-[4-(Aminosulfonyl)phenyl]-1,4-dihydro-[1]benzothiopyrano[4,3-c]pyrazol-3-carbonitrile], the IC50 in test [1] turned out to be 3.5 µM; in test [2] it was 51 µM.

On to `NS(=O)(=O)c1ccc(-n2nc(C(F)(F)F)c3c2-c2cc(Cl)sc2C[S+]3[O-])cc1` (stereo not drawn) [Example 24, 4-[7-chloro-1,5-dihydro-3-trifluoromethyl-thieno[3',2':4,5]thiopyrano-s-oxide[3,2-c]pyrazol-1-yl]benzenesulfonamide], for which the IC50 in test [1] was found to be 45.6 µM; in test [2], 91.1 µM.

Turning to `COc1ccc2c(c1F)CSc1c(C(F)F)nn(-c3ccc(S(N)(=O)=O)cc3)c1-2` [Example 25, 4-[3-(difluoromethyl)-1,5-dihydro-6-fluoro-7-methoxy-[2]benzothiopyrano[4,3-c]pyrazol-1-yl]benzenesulfonamide], the IC50 in test [1] was < 0.1 µM; in test [2] it was > 100 µM.

Take `NS(=O)(=O)c1ccc(-n2nc(C(F)(F)F)c3c2-c2ccc(F)cc2CS3)cc1` [Example 26, 4-[1,5-dihydro-7-fluoro-3-(trifluoromethyl)-[2]benzothiopyrano[4,3-c]pyrazol-1-yl]benzenesulfonamide]: the IC50 in test [1] was < 0.1 µM; in test [2] it was 0.3 µM.

On to `NC(=O)c1nn(-c2ccc(S(N)(=O)=O)cc2)c2c1SCc1cc(F)ccc1-2` [Example 27, [1-(4-aminosulfonylphenyl)-1,5-dihydro-7-fluoro-[2]benzothiopyrano[4,3-c]pyrazol-3-yl]carboxamide], for which the IC50 in test [1] is 4.7 µM; in test [2], > 100 µM.

These data come from patent US5547975A, “Benzopyranopyrazolyl derivatives for the treatment of inflammation” (priority 1994, dated 1996).
